In assay [1] the test system is HT-1080 cells. The assay can be described thus: Lipid peroxidation measurement (C11-BODIPY 581/591, flow cytometry). In kind it is cell-based, human. Particulars: combined with RSL3, compared to RSL3 alone. Here is the method: Cells were seeded on 12-well plates and incubated overnight. After treating with compounds for indicated time, cells were incubated in media containing 5 μM C11-BODIPY 581/591 (Invitrogen) for 30 min at 37° C. Then cells were trypsinized and collected. […] All experiments were performed in triplicates.
For orientation: Flow cytometry measures light scatter and fluorescence of single cells or particles in a stream.

Assay [2] has as its system HT-1080 cells. The assay can be described thus: Relative mitochondrial lipid peroxidation level. In kind it is cell-based, human. The settings on record: combined with RSL3, compared to RSL3 alone.
The subject of assay [3] is oxidative PPP. As to the kind of experiment: Oxidative PPP flux calculation (1,2-[13C2] glucose). In kind it is cell-based. Particulars: sulfite vs vehicle treated cells. The method, then:
Cells were seeded in six-well plates and incubated overnight, then given 2 ml of fresh medium containing 25 mM 1,2-[13C2] glucose. Aliquots of this medium were frozen and stored for analysis to determine the initial glucose concentration, and cells in replicate plates were trypsinized and counted to determine initial cell numbers. After 24 h, the spent medium was extracted as above and frozen until analysis, and the cells were trypsinized and counted to determine the final cell numbers.
For lactate isotopomer analysis the samples were analyzed directly. The relative quantities of M0, M1, M2 and M3 lactate were corrected for natural carbon-13 abundance using the IsoCorrectoR software package (Heinrich, P. et al. Sci Rep 8, 17910, doi: 10.1038/s41598-018-36293-4 (2018)). and the oxidative PPP-shunting ratio was calculated by taking the ratio M1/(M1+M2) (Badur, M. G. et al. Cell Rep 25, 1680, doi: 10.1016/j.celrep.2018.10.099 (2018)); since there is no difference in growth rates between the vehicle and sulfite treated cell lines, it is assumed that the biosynthetic demand for ribose-5-phosphate or any other PPP intermediate is the same in each case, so any increase in this ratio reflects an increase in NADPH production by the oxidative PPP.

The target of assay [4] is T1, SHMT2 protein (Homo sapiens, UniProt P34897).
T1 construct: endogenous in cells
T1 sequence (P34897 30-504): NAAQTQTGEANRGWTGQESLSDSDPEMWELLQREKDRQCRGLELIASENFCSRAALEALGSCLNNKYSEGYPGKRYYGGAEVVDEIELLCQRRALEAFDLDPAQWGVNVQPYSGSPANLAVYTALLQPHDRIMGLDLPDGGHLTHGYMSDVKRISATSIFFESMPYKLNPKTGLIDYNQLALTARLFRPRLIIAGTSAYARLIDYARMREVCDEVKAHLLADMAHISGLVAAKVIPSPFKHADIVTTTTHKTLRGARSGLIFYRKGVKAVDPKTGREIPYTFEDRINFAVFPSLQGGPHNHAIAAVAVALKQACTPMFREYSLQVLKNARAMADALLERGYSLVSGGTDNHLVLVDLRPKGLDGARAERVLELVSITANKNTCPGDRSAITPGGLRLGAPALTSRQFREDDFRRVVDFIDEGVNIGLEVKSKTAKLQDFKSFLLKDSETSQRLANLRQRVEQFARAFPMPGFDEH
The assay can be described thus: SHMT2 tetramer formation (immunoblot). The format is cell-based. Particulars: sulfite treatment. From the text: Exogenously expressed SHMT2 was also able to form tetramer (FIG. 8B).
To generate cell lines with stable overexpression of C-terminal-tagged SHMT2, the SHMT2 cDNA was cloned into the lentivirus expression vector pLEX_307 SFB. HEK293T cells were transfected with either pLEX_307 SFB-empty vector, or -SHMT2, together with the lentiviral packaging plasmids psPAX2 and pMD2.G using Lipofectamine 2000 reagent (Life Technologies, #11668030) according to the manufacturer's instructions and as described previously (Lei, G. et al. Oncogene 40, 3533-3547, doi: 10.1038/s41388-021-01790-w (2021); Lei, G. et al. Cell Res 30, 146-162, doi: 10.1038/s41422-019-0263-3 (2020)). Forty-eight hours later, lentivirus was collected and filtered, and the target cell lines were infected with lentivirus. Twenty-four hours after infection, antibiotic was added to the medium to obtain stable cell lines. Protein expression levels were determined by immunoblotting. To generate knockdown cell lines, lentiviral transduction with IDH1/ME1/MTHFD21 shRNA vectors was conducted as described previously (Lin, A. et al. Cancer Res 74, 1682-1693, doi: 10.1158/0008-5472.CAN-13-1729 (2014)). Forty-eight hours later, upon puromycin antibiotic selection, protein expression levels were determined by immunoblotting.
Briefly, cells were lysed in NP-40 lysis buffer (50 mM Tris [pH 7.4], 250 mM NaCl, 5 mM EDTA, 50 mM NaF, 1 mM Na3VO4, 1% Nonidet P40) containing complete mini protease inhibitors (Roche). The protein concentration of lysates was quantified using BCA Protein Assay Kit from Life Technologies (#23227). 20 μg of total protein was loaded into SDS-PAGE gel and transferred to a PVDF membrane (Bio-Rad) using standard techniques. […]

For assay [5], the system named is SHMT2. As to the kind of experiment: Protein level after sulfite treatment (Western blotting), SHMT2. The format is cell-based. The settings on record: following treatment with sulfite. Here is the method: (§1) To test if sulfite changed mitochondrial protein levels, SHMT2 and MTHFD2 protein levels were measured following treatment with sulfite. No changes in protein levels were observed (FIG. 9).
(§2) Briefly, cells were lysed in NP-40 lysis buffer (50 mM Tris [pH 7.4], 250 mM NaCl, 5 mM EDTA, 50 mM NaF, 1 mM Na3VO4, 1% Nonidet P40) containing complete mini protease inhibitors (Roche). The protein concentration of lysates was quantified using BCA Protein Assay Kit from Life Technologies (#23227). 20 μg of total protein was loaded into SDS-PAGE gel and transferred to a PVDF membrane (Bio-Rad) using standard techniques. The primary antibodies and concentrations used for Western blotting were Vinculin (1:1000, Sigma-Aldrich, #V4505), SUOX (1:1000, Abcam, #ab129094), SHMT2 (1:1000, Sigma-Aldrich, #HPA-020549), IDH1 (1:1000, Proteintech, #12332-1-AP), ME1 (1:1000,), MTHFD2 (1:1000, Abcam, #ab56772), Flag (1:1000, Sigma, #F1804), GPX4 (1:1,000, R&D, #MAB5457), COQ2 (1:1,000, Santa Cruz, sc-517107) and FSP1 (1:1000, Proteintech, #20886-1-AP).
(A western blot detects proteins with antibodies after separation by electrophoresis.)

Assay [6] deals with MTHFD2. The assay can be described thus: Protein level after sulfite treatment (Western blotting), MTHFD2. In kind it is cell-based. Particulars: following treatment with sulfite. The method, then: as §1, §2
In assay [7] the test system is HT-1080 cells. As to the kind of experiment: Cell death assay (PI flow cytometry), HT-1080 cells incl. knockout lines.
Protocol: Initially, the effect of sulfite on ferroptosis was studied. […] Each group was treated with vehicle alone or with sulfite.
The knockout cells were identified by immunoblotting.
Briefly, cells were seeded in 12-well plates and incubated overnight. After treatment, cells were trypsinized and collected. After washing with cold phosphate-buffered saline (PBS), the cells were stained with 2 μg/mL propidium iodide (PI) in cold PBS. […] All experiments were performed in triplicates.

Entries after “also recorded” stand apart in the source; their conditions may differ.

Take `O=S([O-])[O-].[Na+].[Na+]` [sulfite, sodium sulfite]: in assay [1], the “relative lipid peroxidation level in combination with RSL3” value is recorded as “significantly increased”. The “relative mitochondrial lipid peroxidation level in combination with RSL3” value in assay [2] is “significantly increased”. Moreover, the oxPPP shunting result in assay [3] is recorded as “increase”. Moreover, the “tetramer formation of endogenous SHMT2 protein” value in assay [4] is “disrupt the tetramer formation; also recorded: inhibits the tetramer formation”. The “tetramer formation of exogenous expressed SHMT2” value is listed as “inhibit the tetramer formation” in assay [4] and “inhibited the tetramer formation” in assay [4] (listed as Sulfite). Further, the SHMT2 protein level result in assay [5] is “No changes”. Moreover, the MTHFD2 protein level entry in assay [6] is listed as “No changes”. The “cell death as observed visually” value in assay [7] (0.5 mM, cancer cells, presence or absence of RSL3) is “resulted in cell death”. In addition, in assay [7] (GPX4, FSP1, COQ2 and DHODH knock out cell lines), the “sensitization of knock out cells to ferroptosis” value is on record as “can still sensitize”. The “cell death in combination with RSL3 in SHMT2 knock out cells” value in assay [7] (RSL3+Sulfite vs RSL3 alone, SHMT2 knock out cells (FIG. 5J)) is reported as “slight increase in cell death”. In addition, in assay [7] (SUOX knockout HT-1080 cells, vs RSL3 alone), the “cell death in combination with RSL3 in SUOX knockout cells” value is on record as “significantly more cell death”. Also, the “sensitization to RSL3 induced ferroptosis under co-treatment with ferroptosis regulator inhibitors” value in assay [7] (co-treatment with 4CBA, iFSP1 or brequinar (BQR)) is on record as “can still sensitize”. In addition, the “cell death in combination with RSL3” value in assay [7] (combined with RSL3, compared to RSL3 alone) was “significant increased cell death”. For the same molecule, the “cell death in combination with FIN56” value in assay [7] (combined with ferroptosis inducer FIN56) is listed as “similarly enhanced”. In assay [7] (combined with ferroptosis inducer JKE-1674 (JKE)), the “cell death in combination with JKE-1674” value is listed as “similarly enhanced”. Further, in assay [7] (combined with ferroptosis inducer ML-162), the “cell death in combination with ML-162” value is “similarly enhanced”. Besides, the “cell death in combination with ML-210” value in assay [7] (combined with ferroptosis inducer ML-210) was “similarly enhanced”.
